According to patent US10760110B2, “Antibiotic testing and screening system” (priority 2017, dated 2020):
Like-named read-outs stand apart in the source and are kept apart here.

Tests used:
[1] = test system: K. pneumoniae NVT1001 and its ΔompK35/36 and/or ΔramR mutants; experiment: Etest MIC, OmpK35/36 loss and AcrAB-TolC overexpression (ΔramR) strains (Table 6); assay type: cell-based, Klebsiella pneumoniae; conditions: Klebsiella pneumoniae
Summary of the method: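 Etest strips per kit instructions; off-scale intermediate readings rounded upward to the nearest two-fold concentration. Broth microdilution (CLSI) for ceftazidime, cefotaxime only. Breakpoints: CLSI 2017 generally, CLSI 2015 for cephalothin, EUCAST 2017 for moxifloxacin.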

[2] = test system: K. pneumoniae NVT1001 strains with carbapenemase plasmids; experiment: Etest MIC of β-lactams, OmpK35/36 loss, ΔramR and/or carbapenemase (Table 9); assay type: cell-based, Klebsiella pneumoniae; conditions: for MIC: Klebsiella pneumoniae
Summary of the method: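 Cloned resistance genes in pACYC177 or pACYC184 were electroporated into K. pneumoniae NVT1001. MICs were determined by Etest and rounded up to the next two-fold value. Ceftazidime and cefotaxime against the blaOXA-48 construct were also tested by CLSI broth microdilution, with breakpoints from CLSI 2017 (cephalothin CLSI 2015, moxifloxacin EUCAST 2017).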

[3] = test system: K. pneumoniae NVT1001 ΔramRΔompK35/36 mutant and its revertants; experiment: Etest MIC, ΔramRΔompK35/36 mutant and its revertants (Table 7); assay type: cell-based; conditions: Klebsiella pneumoniae

CO[C@@]1(NC(=O)Cc2cccs2)C(=O)N2C(C(=O)O)=C(COC(N)=O)CS[C@@H]21 [Cefoxitin]
8 µg/mL: MIC ([2]; OXA-48 on pACYC177, Δ35 (ΔompK35 mutant)) | MIC ([3]; ΔramRΔompK35/36::ramR::ompK36 revertant)
intermediate resistance: resistance category ([2]; production of KPC-2 or KPC-3 alone)
16 µg/mL: MIC ([1]; Δ36, ΔompK36 mutant) | MIC ([2]; KPC-2 on pACYC177, WT (NVT1001), read-out: MIC) | MIC ([2]; KPC-3 on pACYC177, WT (NVT1001), read-out: MIC) | MIC ([2]; OXA-48 on pACYC177, Δ36 (ΔompK36 mutant)) | MIC ([2]; no supplemental plasmid, Δ36 (ΔompK36 mutant)) | MIC ([3]; ΔramRΔompK35/36::ramR::ompK35 revertant)
> 256 µg/mL: MIC ([1]; ΔramRΔ35/36, ΔramRΔompK35/36 mutant) | MIC ([1]; ΔramRΔ36, ΔramRΔompK36 mutant) | MIC ([2]; IMP-8 on pACYC177, WT (NVT1001), read-out: MIC) | MIC ([2]; IMP-8 on pACYC177, Δ35 (ΔompK35 mutant)) | MIC ([2]; IMP-8 on pACYC177, Δ35/36 (ΔompK35/36 mutant)) | MIC ([2]; IMP-8 on pACYC177, Δ36 (ΔompK36 mutant)) | MIC ([2]; IMP-8 on pACYC177, ΔramR mutant) | MIC ([2]; IMP-8 on pACYC177, ΔramRΔ35 (ΔramRΔompK35 mutant)) | MIC ([2]; IMP-8 on pACYC177, ΔramRΔ35/36 (ΔramRΔompK35/36 mutant)) | MIC ([2]; IMP-8 on pACYC177, ΔramRΔ36 (ΔramRΔompK36 mutant)) | MIC ([2]; KPC-2 on pACYC177, Δ35/36 (ΔompK35/36 mutant)) | MIC ([2]; KPC-2 on pACYC177, ΔramRΔ35/36 (ΔramRΔompK35/36 mutant)) | MIC ([2]; KPC-2 on pACYC177, ΔramRΔ36 (ΔramRΔompK36 mutant)) | MIC ([2]; KPC-3 on pACYC177, Δ35/36 (ΔompK35/36 mutant)) | MIC ([2]; KPC-3 on pACYC177, ΔramRΔ35/36 (ΔramRΔompK35/36 mutant)) | MIC ([2]; KPC-3 on pACYC177, ΔramRΔ36 (ΔramRΔompK36 mutant)) | MIC ([2]; NDM-1 on pACYC177, WT (NVT1001), read-out: MIC) | MIC ([2]; NDM-1 on pACYC177, Δ35 (ΔompK35 mutant)) | MIC ([2]; NDM-1 on pACYC177, Δ35/36 (ΔompK35/36 mutant)) | MIC ([2]; NDM-1 on pACYC177, Δ36 (ΔompK36 mutant)) | MIC ([2]; NDM-1 on pACYC177, ΔramR mutant) | MIC ([2]; NDM-1 on pACYC177, ΔramRΔ35 (ΔramRΔompK35 mutant)) | MIC ([2]; NDM-1 on pACYC177, ΔramRΔ35/36 (ΔramRΔompK35/36 mutant)) | MIC ([2]; NDM-1 on pACYC177, ΔramRΔ36 (ΔramRΔompK36 mutant)) | MIC ([2]; OXA-48 on pACYC177, ΔramRΔ35/36 (ΔramRΔompK35/36 mutant)) | MIC ([2]; OXA-48 on pACYC177, ΔramRΔ36 (ΔramRΔompK36 mutant)) | MIC ([2]; VIM-1 on pACYC177, WT (NVT1001), read-out: MIC) | MIC ([2]; VIM-1 on pACYC177, Δ35 (ΔompK35 mutant)) | MIC ([2]; VIM-1 on pACYC177, Δ35/36 (ΔompK35/36 mutant)) | MIC ([2]; VIM-1 on pACYC177, Δ36 (ΔompK36 mutant)) | MIC ([2]; VIM-1 on pACYC177, ΔramR mutant) | MIC ([2]; VIM-1 on pACYC177, ΔramRΔ35 (ΔramRΔompK35 mutant)) | MIC ([2]; VIM-1 on pACYC177, ΔramRΔ35/36 (ΔramRΔompK35/36 mutant)) | MIC ([2]; VIM-1 on pACYC177, ΔramRΔ36 (ΔramRΔompK36 mutant)) | MIC ([2]; no supplemental plasmid, ΔramRΔ35/36 (ΔramRΔompK35/36 mutant)) | MIC ([2]; no supplemental plasmid, ΔramRΔ36 (ΔramRΔompK36 mutant)) | MIC ([3]; ΔramRΔompK35/36::ompK35 revertant) | MIC ([3]; ΔramRΔompK35/36 mutant)
4 µg/mL: MIC ([1]; WT, NVT1001, read-out: MIC) | MIC ([1]; Δ35, ΔompK35 mutant) | MIC ([2]; OXA-48 on pACYC177, WT (NVT1001), read-out: MIC) | MIC ([2]; no supplemental plasmid, WT (NVT1001), read-out: MIC) | MIC ([2]; no supplemental plasmid, Δ35 (ΔompK35 mutant)) | MIC ([3]; ΔramRΔompK35/36::ramR::ompK35/36 revertant)
64 µg/mL: MIC ([1]; ΔramR mutant) | MIC ([1]; ΔramRΔ35, ΔramRΔompK35 mutant) | MIC ([2]; KPC-2 on pACYC177, Δ36 (ΔompK36 mutant)) | MIC ([2]; KPC-3 on pACYC177, Δ36 (ΔompK36 mutant)) | MIC ([2]; OXA-48 on pACYC177, ΔramRΔ35 (ΔramRΔompK35 mutant)) | MIC ([2]; no supplemental plasmid, ΔramR mutant) | MIC ([2]; no supplemental plasmid, ΔramRΔ35 (ΔramRΔompK35 mutant)) | MIC ([3]; ΔramRΔompK35/36::ompK35/36 revertant) | MIC ([3]; ΔramRΔompK35/36::ompK36 revertant) | MIC ([3]; ΔramRΔompK35/36::ramR revertant)
128 µg/mL: MIC ([1]; Δ35/36, ΔompK35/36 mutant) | MIC ([2]; KPC-2 on pACYC177, ΔramR mutant) | MIC ([2]; KPC-2 on pACYC177, ΔramRΔ35 (ΔramRΔompK35 mutant)) | MIC ([2]; KPC-3 on pACYC177, ΔramR mutant) | MIC ([2]; KPC-3 on pACYC177, ΔramRΔ35 (ΔramRΔompK35 mutant)) | MIC ([2]; OXA-48 on pACYC177, Δ35/36 (ΔompK35/36 mutant)) | MIC ([2]; OXA-48 on pACYC177, ΔramR mutant) | MIC ([2]; no supplemental plasmid, Δ35/36 (ΔompK35/36 mutant))
32 µg/mL: MIC ([2]; KPC-2 on pACYC177, Δ35 (ΔompK35 mutant)) | MIC ([2]; KPC-3 on pACYC177, Δ35 (ΔompK35 mutant))
